Assay results as given in patent publication US6362234B1, “Water-soluble prodrugs of propofol for treatment of migrane” (Vyrex Corporation, priority 2000, dated 2002).
Counter-ions that a name gives are not always drawn.

How the values were obtained:
[1] = In vivo hydrolysis of propofol hemisuccinate after gavage; settings: rats, two day observation period following the dosing
Description: (§4) Propofol hemisuccinate sodium salt in aqueous solution was administered to adult male Sprague-Dawley rats by gavage. Blood was collected at 2, 4, 8 and 24 hours after dosing, and analyzed by HPLC as described in example 3.

[2] = male, Sprague-Dawley, rat, in vivo
Description: as §4

[3] = system: low density lipoprotein (LDL); experiment: Copper-promoted oxidation of LDL (conjugated dienes); assay type: biochemical, human; settings: 5 μM compound; 100 μg/ml LDL, 5 μM copper sulfate
Description: (§1) The following experiment is based on the use of low density lipoprotein (LDL) as an oxidizable substrate. LDL is one of the plasma lipoproteins whose oxidation is thought to contribute to the pathogenesis of atherosclerosis. The copper-promoted, the hydrogen peroxide-/horseradish peroxidase-promoted and the myeloperoxidase-promoted oxidation of LDL are models for the free radical-induced oxidation of LDL that occurs in vivo.
(§2) LDL was isolated from heparinized plasma of normal human donors by ultracentrifugation. Most of the experiments described in this study were performed immediately after isolation. Examples and further details of the experimental procedures may be found in N. Santanam et al J. Clin Invest. 95(6):2594 (1995) and FEBS Letters, 414:549-551 (1997).
(§3) The formation of conjugated dienes was measured in a spectrophotometer (model DB-3500; SLM-AMINCO, Urbana, Ill.) equipped with a 12 position sample changer. Samples and references were measured continuously for periods of up to several hours. Typically, 100 μg/ml of LDL was incubated in PBS with 1 U horseradish peroxidase (type X, 260 U/mg) in the presence of 50 μM H2O2. For copper-mediated oxidation, 100 μg/ml LDL was incubated with 5 μM copper sulfate solution.

[4] = system: low density lipoprotein (LDL); experiment: Hydrogen peroxide/horseradish peroxidase-promoted oxidation of LDL (conjugated dienes); assay type: biochemical, human; settings: 5 μM compound; 100 μg/ml LDL, 1 U horseradish peroxidase, 50 μM H2O2
Description: as §1, §2, §3

## CC(C)c1cccc(C(C)C)c1OC(=O)CCC(=O)O (as salt: succinate) [propofol hemisuccinate, 2,6-diisopropylphenyl hydrogen succinate]
other
  melting point: 101 to 102 °C

## CC(C)c1cccc(C(C)C)c1OC(=O)CCC(=O)O [propofol hemisuccinate, 2,6-diisopropylphenyl hydrogen succinate]
[1]
  Condition of the animals after dosing: All the animals remained healthy and active
[2]
  Time of peak blood levels of propofol after dosing: 2 to 4 h

## mono(propofol) phosphate disodium salt [(mono)propofol phosphate]
[3]
  Effect on copper-promoted oxidation of LDL: not significantly affected
[4]
  Effect on oxidation of LDL in the presence of horseradish peroxidase/hydrogen peroxide: not significantly affected
